Read-outs that look alike come from different tables or passages of the source.
Test: Pharmacokinetics study of KPT-335 in cats (i.v. injection, p.o. capsules and tablets; UPLC-MS/MS, non-compartmental analysis)
Type: in vivo
Conditions: both sexes, plasma, cats; for AUC(0-t): read-out: AUClast; for AUC(0-inf): read-out: AUCINF_obs; for Cmax: read-out: Cmax
Experimental: In this study, a parallel trial design was employed, 42 adult domestic cats (21 males and 21 females), aged 1 to 2 years and weighing 2.5 ± 0.25 kg. Cats were grouped by random number, with half male and female in each group, and all cats were determined to be systemically healthy during an initial screening visit 1 week prior to the experiment. They were acclimatized to the laboratory environment for 7 days before the study commenced. During this period, they were kept in solitary cages with free access to water. Cats in the fasting group were deprived of food for 12 h prior to and 2 h following drug administration, while those in the feeding group were fed twice a day. Food and water sources were consistent throughout the trail. During and at the end of the experiment, we systematically assessed the adverse reactions by recording parameters such as body weight, behavior, and coat gloss in all test cats both before and after the trial. These observations were conducted to evaluate whether any adverse reactions occurred. All procedures were reviewed and approved by the Institutional Animal Care and Use Committee of China Agricultural University (11305-23-E-002).
The UPLC-MS/MS system utilized a UPLC 1290 (Agilent) paired with a Phenomenex Kinetex C18 column (50 mm × 2.1 mm, 2.6 μm) for separation at a flow rate of 0.3 mL/min. The chromatographic mobile phase comprised water (A) and acetonitrile (B), both containing 0.1% formic acid. The gradient elution program was as follows: from 0.5 to 2.5 min, 10 to 95% B; from 2.5 to 4.5 min, 95% B; from 4.5 to 4.6 min, 95 to 10% B; and from 4.6 to 6.0 min, 10% B. The injection volume was 2 μL.
For mass spectrometry, an Agilent 6,475-LC-TQ equipped with an electrospray ion source was used. Multiple Reaction Monitoring (MRM) was selected to quantify KPT-335 in the positive ion mode. The ion transitions monitored were m/z 443.1 → 334.0 and 443.1 → 110.1 for KPT-335, and m/z 444.1 → 334.0 for the internal standard (IS). The cone voltage and collision energy were optimized for KPT-335 and the IS individually, set at 160 V and 25 eV, respectively. The optimized parameters for the instrument included an ion source temperature of 350°C, solvent removal temperature of 320°C, capillary voltage of 3.0 kV, and a solvent gas flow rate of 300 L/h.
The method was developed based on prior research conducted in the laboratory ([16]) and validated in accordance with international guidelines ([17]). The calibration concentration range for KPT-335 spanned from 0.5 to 100 ng/mL, with a lower limit of quantification (LLOQ) set at 0.5 ng/mL. The squared correlation coefficient (R^2) values exceeded 0.999, indicating high linearity.
For sample preparation, 100 μL of plasma was mixed with 10 μL of internal standard (IS) and 900 μL of acetonitrile, followed by vortexing for 2 min. The mixture was then centrifuged at 13,400 × g at 4°C for 10 min. The supernatant was filtered through a 0.22 μm organic membrane, and the resulting sample was analyzed using UPLC-MS/MS.
Cats were divided into seven groups, with six cats in each group. In the intravenous (i.v.) group (Group 1), cats received an injection of KPT-335 at a dosage of 1 mg/kg body weight (BW), administered via a bolus through a venous infusion needle. For the oral (p.o.) administration, cats were given capsules in a fasting state at doses of 0.2 mg/kg BW (Group 2), 1 mg/kg BW (Group 3), and 2 mg/kg BW (Group 4). Additionally, tablets were administered at 1 mg/kg BW (fasting, Group 5), 1 mg/kg BW (Group 6), and 2 mg/kg BW (Group 7) in a feeding state, followed by 3 mL of water delivered with a syringe.
For the p.o. administration, blood samples of 1.5 mL were collected via the brachial cephalic vein prior to administration and at 0.167, 0.333, 0.5, 0.75, 1, 1.5, 2, 4, 6, 8, 12, 24, 32, and 48 h post-administration. […]

[1] = cat, iv, 1 mg/kg, i.v. 1 mg/kg BW, mean, read-out: Plasma concentration Mean
[2] = cat, iv, 1 mg/kg, i.v. 1 mg/kg BW, mean
[3] = cat, po, 0.2 mg/kg, capsule p.o. 0.2 mg/kg BW, mean, read-out: Plasma concentration Mean
[4] = cat, po, 0.2 mg/kg, capsule p.o. 0.2 mg/kg BW, mean
[5] = cat, po, 1 mg/kg, capsule p.o. 1 mg/kg BW, mean, read-out: Plasma concentration Mean
[6] = cat, po, 1 mg/kg, capsule p.o. 1 mg/kg BW, mean
[7] = cat, po, 1 mg/kg, capsule p.o. 1 mg/kg BW, individual cats 1-6, read-out: Plasma concentration
[8] = cat, po, 1 mg/kg, tablet p.o. 1 mg/kg BW after fasting, individual cats 1-6, read-out: Plasma concentration
[9] = cat, po, 1 mg/kg, tablet p.o. 1 mg/kg BW after fasting, mean, read-out: Plasma concentration Mean
[10] = cat, po, 1 mg/kg, tablet p.o. 1 mg/kg BW after fasting, mean
[11] = cat, po, 1 mg/kg, tablet p.o. 1 mg/kg BW after feeding, mean, read-out: Plasma concentration Mean
[12] = cat, po, 1 mg/kg, tablet p.o. 1 mg/kg BW after feeding, mean
[13] = cat, po, 2 mg/kg, capsule p.o. 2 mg/kg BW, mean, read-out: Plasma concentration Mean
[14] = cat, po, 2 mg/kg, capsule p.o. 2 mg/kg BW, mean
[15] = cat, po, 2 mg/kg, tablet p.o. 2 mg/kg BW after feeding, mean, read-out: Plasma concentration Mean
[16] = cat, po, 2 mg/kg, tablet p.o. 2 mg/kg BW after feeding, mean
[17] = cat, po, 2 mg/kg, tablet p.o. 2 mg/kg BW after feeding, individual cats 1-6, read-out: Plasma concentration
[18] = iv, 1 mg/kg, i.v., Injection, 1 mg/kg BW
[19] = po, 0.2 mg/kg, p.o., Capsule, Fasting, 0.2 mg/kg BW

Structure (SMILES): O=C(/C=C\n1cnc(-c2cc(C(F)(F)F)cc(C(F)(F)F)c2)n1)NNc1ccccn1 [KPT-335]
- concentration at 0.083 h (cat, iv, 1 mg/kg, i.v. 1 mg/kg BW, 0.083 h, mean): 844 ng/mL
- concentration at 0.167 h [1]: 812 ng/mL
- concentration at 0.25 h (cat, iv, 1 mg/kg, i.v. 1 mg/kg BW, 0.25 h, mean): 767 ng/mL
- concentration at 0.33 h [2]: 733 ng/mL
- concentration at 0.5 h [2]: 667 ng/mL
- concentration at 0.75 h [2]: 526 ng/mL
- concentration at 1 h [1]: 531 ng/mL
- concentration at 2 h [1]: 441 ng/mL
- concentration at 4 h [1]: 255 ng/mL
- concentration at 8 h [2]: 95.9 ng/mL
- concentration at 12 h [2]: 39.5 ng/mL
- concentration at 24 h [2]: 10.2 ng/mL
- concentration at 32 h [2]: 4.86 ng/mL
- half-life (cat, other: i.v. and p.o., i.v. and p.o. routes, all groups, read-out: half-life (T1/2), range over all groups): 3.5 to 7 h
- concentration at 0.167 h [3]: 1.34 ng/mL
- concentration at 0.33 h [4]: 6.56 ng/mL
- concentration at 0.5 h [4]: 13.6 ng/mL
- concentration at 0.75 h [4]: 20.8 ng/mL
- concentration at 1 h [3]: 21.5 ng/mL
- concentration at 1.5 h [3]: 22.9 ng/mL
- concentration at 2 h [3]: 22.4 ng/mL
- concentration at 4 h [3]: 17.9 ng/mL
- concentration at 6 h [4]: 15.5 ng/mL
- concentration at 8 h [4]: 13.9 ng/mL
- concentration at 12 h [4]: 9.36 ng/mL
- concentration at 24 h [4]: 3.49 ng/mL
- concentration at 32 h [4]: 3.58 ng/mL
- concentration at 0.167 h [5]: 4.97 ng/mL
- concentration at 0.33 h [6]: 39.5 ng/mL
- concentration at 0.5 h [6]: 100 ng/mL
- concentration at 0.75 h [6]: 174 ng/mL
- concentration at 1 h [7]: 161 ng/mL
- concentration at 1 h [5]: 233 ng/mL
- concentration at 1.5 h [5]: 250 ng/mL
- concentration at 2 h [5]: 227 ng/mL
- concentration at 4 h [5]: 153 ng/mL
- concentration at 6 h [6]: 79.2 ng/mL
- concentration at 8 h [6]: 53.1 ng/mL
- concentration at 12 h [6]: 24.6 ng/mL
- concentration at 24 h [6]: 5.57 ng/mL
- concentration at 32 h [6]: 1.82 ng/mL
- concentration at 48 h [7]: 0.69 ng/mL
- concentration at 48 h [5]: 0.84 ng/mL
- AUC(0-t) (cat, po, 1 mg/kg, p.o., Tablet, Feeding, 1 mg/kg BW): 2270 ± 1250 ng·h/mL
- concentration at 0.167 h [8]: 5.51 ng/mL
- concentration at 0.167 h [9]: 5.66 ng/mL
- concentration at 0.33 h [10]: 77.5 ng/mL
- concentration at 0.5 h [10]: 204 ng/mL
- concentration at 0.75 h [10]: 223 ng/mL
- concentration at 1 h [9]: 227 ng/mL
- concentration at 1.5 h [9]: 235 ng/mL
- concentration at 2 h [8]: 208 ng/mL
- concentration at 2 h [9]: 216 ng/mL
- concentration at 4 h [8]: 209 ng/mL
- concentration at 4 h [9]: 187 ng/mL
- concentration at 6 h [10]: 154 ng/mL
- concentration at 8 h [10]: 121 ng/mL
- concentration at 12 h [10]: 74.1 ng/mL
- concentration at 24 h [10]: 15.5 ng/mL
- concentration at 32 h [10]: 5.11 ng/mL
- concentration at 48 h [9]: 2.26 ng/mL
- concentration at 0.167 h [11]: 13.8 ng/mL
- concentration at 0.33 h [12]: 79.1 ng/mL
- concentration at 0.5 h [12]: 148 ng/mL
- concentration at 0.75 h [12]: 257 ng/mL
- concentration at 1 h [11]: 334 ng/mL
- concentration at 1.5 h [11]: 321 ng/mL
- concentration at 2 h [11]: 304 ng/mL
- concentration at 4 h [11]: 211 ng/mL
- concentration at 6 h [12]: 146 ng/mL
- concentration at 8 h [12]: 107 ng/mL
- concentration at 12 h [12]: 52.1 ng/mL
- concentration at 24 h [12]: 7.74 ng/mL
- concentration at 32 h [12]: 3.37 ng/mL
- concentration at 48 h [11]: 1.25 ng/mL
- concentration at 0.167 h [13]: 0.68 ng/mL
- concentration at 0.33 h [14]: 8.76 ng/mL
- concentration at 0.5 h [14]: 52.5 ng/mL
- concentration at 0.75 h [14]: 152 ng/mL
- concentration at 1 h [13]: 206 ng/mL
- concentration at 1.5 h [13]: 272 ng/mL
- concentration at 2 h [13]: 269 ng/mL
- concentration at 4 h [13]: 187 ng/mL
- concentration at 6 h [14]: 111 ng/mL
- concentration at 8 h [14]: 74.1 ng/mL
- concentration at 12 h [14]: 40.1 ng/mL
- concentration at 24 h [14]: 9.56 ng/mL
- concentration at 32 h [14]: 4.07 ng/mL
- concentration at 48 h [13]: 1.28 ng/mL
- AUC(0-t) (cat, po, 2 mg/kg, p.o., Tablet, Feeding, 2 mg/kg BW): 3000 ng·h/mL
- concentration at 0.167 h [15]: 16.9 ng/mL
- concentration at 0.33 h [16]: 95.9 ng/mL
- concentration at 0.5 h [16]: 222 ng/mL
- concentration at 0.75 h [16]: 389 ng/mL
- concentration at 1 h [17]: 288 ng/mL
- concentration at 1 h [15]: 464 ng/mL
- concentration at 1.5 h [17]: 366 ng/mL
- concentration at 1.5 h [15]: 555 ng/mL
- concentration at 2 h [17]: 303 ng/mL
- concentration at 2 h [15]: 516 ng/mL
- concentration at 4 h [15]: 333 ng/mL
- concentration at 6 h [16]: 187 ng/mL
- concentration at 8 h [16]: 126 ng/mL
- concentration at 12 h [16]: 45 ng/mL
- concentration at 24 h [16]: 6.55 ng/mL
- concentration at 32 h [16]: 2.28 ng/mL
- Tmax (cat, po, all p.o. groups, read-out: Tmax after oral (p.o.) administration): 1 to 2.5 h
- bioavailability (cat, po, p.o. capsules 0.2–2 mg/kg BW, read-out: absolute bioavailability, capsule group range): 28.9 to 44.7%
- bioavailability (cat, po, p.o. tablets 1–2 mg/kg BW, read-out: absolute bioavailability, tablet group range): 47.3 to 75.9%
- MRT last (iv, 1 mg/kg, Injection, 1 mg/kg BW): 4.73 ± 1.1 h
- AUC(0-inf) [18]: 3200 ± 851 ng·h/mL
- AUC(0-t) [18]: 3170 ± 842 ng·h/mL
- Cmax [18]: 851 ± 285 ng/mL
- k el (iv, 1 mg/kg, i.v., Injection, 1 mg/kg BW, read-out: Lambda_z (converted)): 5e-05 s⁻¹
- MRT last (po, 0.2 mg/kg, Capsule, Fasting, 0.2 mg/kg BW): 8.66 ± 2.71 h
- AUC(0-inf) [19]: 314 ± 220 ng·h/mL
- AUC(0-t) [19]: 278 ± 158 ng·h/mL
- Cmax [19]: 27.6 ± 9.02 ng/mL

From paper PMC12078333, “Pharmacokinetic evaluation and bioavailability of KPT-335 (Verdinexor) in cats” (Frontiers in Veterinary Science, 2025)
